From article PMC10648875 (Antimicrobial Agents and Chemotherapy, 2023)
Converted amounts (≈) assume the structure as drawn.

Tests used:
[1] = tested on: PAM4821 producing CTX-M-25; assay: MIC, engineered isogenic strain; assay type: cell-based, P. aeruginosa; settings: CTX-M-25, class A; BLIs at fixed 4 µg/mL
PAM4689 producing KPC-3 = assay: MIC, engineered isogenic strain; assay type: cell-based, P. aeruginosa; settings: KPC-3, class A; BLIs at fixed 4 µg/mL
PAM4908 producing VEB-1 = assay: MIC, engineered isogenic strain; assay type: cell-based, P. aeruginosa; settings: VEB-1, class A; BLIs at fixed 4 µg/mL
PAM4910 producing VEB-2 = assay: MIC, engineered isogenic strain; assay type: cell-based, P. aeruginosa; settings: VEB-2, class A; BLIs at fixed 4 µg/mL
PAM4186 producing CMY-2 = assay: MIC, engineered isogenic strain; assay type: cell-based, P. aeruginosa; settings: CMY-2, class C; BLIs at fixed 4 µg/mL
PAM4745 producing P99 = assay: MIC, engineered isogenic strain; assay type: cell-based, P. aeruginosa; settings: P99, class C; BLIs at fixed 4 µg/mL
PAM4869 producing PDC-1 = assay: MIC, engineered isogenic strain; assay type: cell-based, P. aeruginosa; settings: PDC-1, class C; BLIs at fixed 4 µg/mL
PAM4875 producing OXA-23 = assay: MIC, engineered isogenic strain; assay type: cell-based, P. aeruginosa; settings: OXA-23, class D; BLIs at fixed 4 µg/mL
PAM4798 producing VIM-2 = assay: MIC, engineered isogenic strain; assay type: cell-based, P. aeruginosa; settings: VIM-2, class B; BLIs at fixed 4 µg/mL
PAM4888 producing IMP-4 = assay: MIC, engineered isogenic strain; assay type: cell-based, P. aeruginosa; settings: IMP-4, class B; BLIs at fixed 4 µg/mL
PAM4890 producing IMP-19 = assay: MIC, engineered isogenic strain; assay type: cell-based, P. aeruginosa; settings: IMP-19, class B; BLIs at fixed 4 µg/mL
PAM4885 producing SPM-1 = assay: MIC, engineered isogenic strain; assay type: cell-based, P. aeruginosa; settings: SPM-1, class B; BLIs at fixed 4 µg/mL
PAM4880 producing L1 = assay: MIC, engineered isogenic strain; assay type: cell-based, P. aeruginosa; settings: L1, class B; BLIs at fixed 4 µg/mL
[2] = tested on: ESBL-producing and carbapenem-resistant Enterobacterales (All, N = 1028); assay: organism not typed; assay type: cell-based; settings: for MIC50: read-out: MIC50; for MIC90: read-out: MIC90
OXA-48 = OXA-48 (Klebsiella pneumoniae, UniProt Q6XEC0); assay: Ki app of β-lactamase inhibition, purified enzyme; assay type: biochemical, Enterobacterales; settings: 10-minute preincubation; nitrocefin substrate
OXA-48, sequence (Q6XEC0 23-265 limits assumed): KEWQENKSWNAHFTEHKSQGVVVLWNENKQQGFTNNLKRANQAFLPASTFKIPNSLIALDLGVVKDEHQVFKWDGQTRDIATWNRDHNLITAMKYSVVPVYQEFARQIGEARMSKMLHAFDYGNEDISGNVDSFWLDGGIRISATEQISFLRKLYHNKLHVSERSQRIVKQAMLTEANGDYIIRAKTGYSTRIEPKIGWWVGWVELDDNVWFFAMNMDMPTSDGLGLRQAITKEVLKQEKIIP
Experimental: (§1) The majority of purified β-lactamase enzymes used in the study were either expressed and purified internally ([35]) or obtained from Emerald Biostructures (Bainbridge Island, WA, USA). L1 enzyme was purified as described in reference ([36]).
(§2) Enzymes were mixed with BLIs at concentrations varying from 160 to 0.0027 µM in 50-mM Na-phosphate pH7.0, 0.1-mg/mL bovide serum albumin (BSA) (buffer A; 20-µM ZnCl2 was also added for all metalloenzymes) and incubated for 10 minutes at 37°C. Nitrocefin (50 µM) (10 µM for SHV-12) or 100 µM of imipenem (prewarmed at 37°C for 10 minutes) was added, and substrate cleavage profiles were recorded at 37°C at 490 nm every 10 seconds for 10 minutes or at 294 nm every 30 seconds for 1 hour for nitrocefin and imipenem, respectively. […] Ki app values (Ki for metalloenzymes) were calculated by the method of Waley ([37]).

L1 = target: T1, L1 (Stenotrophomonas maltophilia, UniProt P52700); assay: Ki of metallo-β-lactamase inhibition, purified enzyme; assay type: biochemical; settings: 10-minute preincubation; nitrocefin substrate
T1 construct: made in house
T1 sequence (P52700 34-290): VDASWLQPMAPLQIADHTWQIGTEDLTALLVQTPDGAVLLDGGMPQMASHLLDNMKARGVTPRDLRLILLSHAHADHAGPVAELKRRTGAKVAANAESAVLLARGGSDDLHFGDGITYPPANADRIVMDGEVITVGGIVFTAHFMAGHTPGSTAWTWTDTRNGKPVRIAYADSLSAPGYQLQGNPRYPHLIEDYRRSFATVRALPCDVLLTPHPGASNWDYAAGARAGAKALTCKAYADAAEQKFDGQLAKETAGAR
Experimental: as §1, §2

VIM-1 = VIM-1 (Pseudomonas aeruginosa, UniProt A0A0F7KYQ8); assay: as above; assay type: biochemical; settings: 10-minute preincubation, nitrocefin substrate
Experimental: as §1, §2

[3] = target: T2, VIM-1 in whole cells of KP1015 (OmpK36 GD repeat) (Pseudomonas aeruginosa, UniProt A0A0F7KYQ8); assay: cell-based; design: species or system K. pneumoniae; settings: read-out: IC50 of β-lactamase inhibition in whole cells
T2 construct: endogenous in cells; host or cells: K. pneumoniae KP1015

[4] = tested on: isogenic efflux and porin mutants of K. pneumoniae and their NDM-1-producing derivatives; assay: MIC against isogenic efflux and porin mutants (Table 9); assay type: cell-based; settings: for BLI MIC: BLI alone
[5] = KPM1026a, Wild type, ATCC 43816, β-lactamase None, BLI 0 µg/mL
[6] = KPM1026a, Wild type, ATCC 43816, β-lactamase None, BLI 4 µg/mL
[7] = KPM1026a, Wild type, ATCC 43816, β-lactamase None, BLI 8 µg/mL
[8] = KPM1027, ramR*, β-lactamase None, BLI 0 µg/mL
[9] = KPM1027, ramR*, β-lactamase None, BLI 4 µg/mL
[10] = KPM1027, ramR*, β-lactamase None, BLI 8 µg/mL
[11] = KPM1281, Wild type, ATCC 43816, NDM-1, BLI 0 µg/mL
[12] = KPM1281, Wild type, ATCC 43816, NDM-1, BLI 4 µg/mL
[13] = KPM1281, Wild type, ATCC 43816, NDM-1, BLI 8 µg/mL
[14] = KPM1282, ramR*, NDM-1, BLI 0 µg/mL
[15] = KPM1282, ramR*, NDM-1, BLI 4 µg/mL
[16] = KPM1282, ramR*, NDM-1, BLI 8 µg/mL
[17] = KPM2013, mpK36_2040 ΔompK35, β-lactamase None, BLI 0 µg/mL
[18] = KPM2013, mpK36_2040 ΔompK35, β-lactamase None, BLI 4 µg/mL
[19] = KPM2013, mpK36_2040 ΔompK35, β-lactamase None, BLI 8 µg/mL
[20] = KPM2040, mpK36_2040*, β-lactamase None, BLI 0 µg/mL
[21] = KPM2040, mpK36_2040*, β-lactamase None, BLI 4 µg/mL
[22] = KPM2040, mpK36_2040*, β-lactamase None, BLI 8 µg/mL
[23] = KPM3820, mpK36_2040*, NDM-1, BLI 0 µg/mL
[24] = KPM3820, mpK36_2040*, NDM-1, BLI 4 µg/mL
[25] = KPM3820, mpK36_2040*, NDM-1, BLI 8 µg/mL
[26] = KPM3825, mpK36_2040 ΔompK35, NDM-1, BLI 0 µg/mL
[27] = KPM3825, mpK36_2040 ΔompK35, NDM-1, BLI 4 µg/mL
[28] = KPM3825, mpK36_2040 ΔompK35, NDM-1, BLI 8 µg/mL

Structure (SMILES): CO/N=C(\C(=O)N[C@@H]1C(=O)N2C(C(=O)[O-])=C(C[N+]3(C)CCCC3)CS[C@H]12)c1csc(N)n1 [FEP, cefepime]
- MIC [1]: > 64 µg/mL
- MIC (PAM4689 producing KPC-3): > 64 µg/mL
- MIC (PAM4908 producing VEB-1): > 64 µg/mL
- MIC (PAM4910 producing VEB-2): > 64 µg/mL
- MIC (PAM4186 producing CMY-2): 1 µg/mL (≈ 2.08 µM)
- MIC (PAM4745 producing P99): 8 µg/mL (≈ 16.6 µM)
- MIC (PAM4869 producing PDC-1): 4 µg/mL (≈ 8.32 µM)
- MIC (PAM4875 producing OXA-23): 2 µg/mL (≈ 4.16 µM)
- MIC (PAM4798 producing VIM-2): 8 µg/mL (≈ 16.6 µM)
- MIC (PAM4888 producing IMP-4): 32 µg/mL (≈ 66.6 µM)
- MIC (PAM4890 producing IMP-19): 64 µg/mL (≈ 133 µM)
- MIC (PAM4885 producing SPM-1): > 64 µg/mL
- MIC (PAM4880 producing L1): 4 µg/mL (≈ 8.32 µM)
- MIC50 [2]: 64 µg/mL (≈ 133 µM)
- MIC90 [2]: > 64 µg/mL

Structure (SMILES): C[C@@H](O)[C@H]1C(=O)N2C(C(=O)O)=C(S[C@@H]3CN[C@H](C(=O)N(C)C)C3)[C@H](C)[C@H]12 [MEM, meropenem]
- MIC [1]: 0.5 µg/mL (≈ 1.3 µM)
- MIC (PAM4689 producing KPC-3): 64 µg/mL (≈ 167 µM)
- MIC (PAM4908 producing VEB-1): 0.5 µg/mL (≈ 1.3 µM)
- MIC (PAM4910 producing VEB-2): 0.25 µg/mL (≈ 0.652 µM)
- MIC (PAM4186 producing CMY-2): 0.25 µg/mL (≈ 0.652 µM)
- MIC (PAM4745 producing P99): 1 µg/mL (≈ 2.61 µM)
- MIC (PAM4869 producing PDC-1): 0.5 µg/mL (≈ 1.3 µM)
- MIC (PAM4875 producing OXA-23): 2 µg/mL (≈ 5.22 µM)
- MIC (PAM4798 producing VIM-2): 8 µg/mL (≈ 20.9 µM)
- MIC (PAM4888 producing IMP-4): 4 µg/mL (≈ 10.4 µM)
- MIC (PAM4890 producing IMP-19): 1 µg/mL (≈ 2.61 µM)
- MIC (PAM4885 producing SPM-1): 32 µg/mL (≈ 83.4 µM)
- MIC (PAM4880 producing L1): 32 µg/mL (≈ 83.4 µM)
- MIC50 [2]: 0.5 µg/mL (≈ 1.3 µM)
- MIC90 [2]: > 64 µg/mL

Structure (SMILES): NCCN[C@H]1CC[C@H](CC(=O)N[C@H]2Cc3cccc(C(=O)O)c3OB2O)CC1 [Taniborbactam, taniborbactam]
- Ki (OXA-48): 6.1 ± 0.7 nM
- Ki (L1): 17000 nM
- Ki (VIM-1): 31 ± 3 nM
- Ki (VIM-1; listed as taniborbactam): ~30 nM
- IC50 [3]: 39100 ± 8200 nM
- Cefepime MIC with BLIs [4, 5]: 0.03 µg/mL
- Meropenem MIC with BLIs [4, 5]: 0.03 µg/mL
- Cefepime MIC with BLIs [4, 6]: 0.03 µg/mL
- Meropenem MIC with BLIs [4, 6]: 0.03 µg/mL
- Cefepime MIC with BLIs [4, 7]: 0.03 µg/mL
- Meropenem MIC with BLIs [4, 7]: 0.03 µg/mL
- BLI MIC ([4]; KPM1026a, Wild type, ATCC 43816, β-lactamase None): >64 µg/mL
- Cefepime MIC with BLIs [4, 8]: 0.25 µg/mL
- Meropenem MIC with BLIs [4, 8]: 0.06 µg/mL
- Cefepime MIC with BLIs [4, 9]: 0.25 µg/mL
- Meropenem MIC with BLIs [4, 9]: 0.06 µg/mL
- Cefepime MIC with BLIs [4, 10]: 0.25 µg/mL
- Meropenem MIC with BLIs [4, 10]: 0.06 µg/mL
- BLI MIC ([4]; KPM1027, ramR*, β-lactamase None): >64 µg/mL
- Cefepime MIC with BLIs [4, 11]: 16 µg/mL
- Meropenem MIC with BLIs [4, 11]: 32 µg/mL
- Cefepime MIC with BLIs [4, 12]: 0.25 µg/mL
- Meropenem MIC with BLIs [4, 12]: 0.125 µg/mL
- Cefepime MIC with BLIs [4, 13]: 0.125 µg/mL
- Meropenem MIC with BLIs [4, 13]: 0.06 µg/mL
- BLI MIC ([4]; KPM1281, Wild type, ATCC 43816, NDM-1): >64 µg/mL
- Cefepime MIC with BLIs [4, 14]: 32 µg/mL
- Meropenem MIC with BLIs [4, 14]: 64 µg/mL
- Cefepime MIC with BLIs [4, 15]: 0.5 µg/mL
- Meropenem MIC with BLIs [4, 15]: 0.25 µg/mL
- Cefepime MIC with BLIs [4, 16]: 0.5 µg/mL
- Meropenem MIC with BLIs [4, 16]: 0.125 µg/mL
- BLI MIC ([4]; KPM1282, ramR*, NDM-1): >64 µg/mL
- Cefepime MIC with BLIs [4, 17]: 0.5 µg/mL
- Meropenem MIC with BLIs [4, 17]: 0.25 µg/mL
- Cefepime MIC with BLIs [4, 18]: 0.5 µg/mL
- Meropenem MIC with BLIs [4, 18]: 0.25 µg/mL
- Cefepime MIC with BLIs [4, 19]: 0.5 µg/mL
- Meropenem MIC with BLIs [4, 19]: 0.25 µg/mL
- BLI MIC ([4]; KPM2013, mpK36_2040 ΔompK35, β-lactamase None): >64 µg/mL
- Cefepime MIC with BLIs [4, 20]: 0.125 µg/mL
- Meropenem MIC with BLIs [4, 20]: 0.125 µg/mL
- Cefepime MIC with BLIs [4, 21]: 0.125 µg/mL
- Meropenem MIC with BLIs [4, 21]: 0.125 µg/mL
- Cefepime MIC with BLIs [4, 22]: 0.125 µg/mL
- Meropenem MIC with BLIs [4, 22]: 0.125 µg/mL
- BLI MIC ([4]; KPM2040, mpK36_2040*, β-lactamase None): >64 µg/mL
- Cefepime MIC with BLIs [4, 23]: 128 µg/mL
- Meropenem MIC with BLIs [4, 23]: 128 µg/mL
- Cefepime MIC with BLIs [4, 24]: 4 µg/mL
- Meropenem MIC with BLIs [4, 24]: 8 µg/mL
- Cefepime MIC with BLIs [4, 25]: 2 µg/mL
- Meropenem MIC with BLIs [4, 25]: 4 µg/mL
- BLI MIC ([4]; KPM3820, mpK36_2040*, NDM-1): >64 µg/mL
- Cefepime MIC with BLIs [4, 26]: 256 µg/mL
- Meropenem MIC with BLIs [4, 26]: 256 µg/mL
- Cefepime MIC with BLIs [4, 27]: 8 µg/mL
- Meropenem MIC with BLIs [4, 27]: 32 µg/mL
- Cefepime MIC with BLIs [4, 28]: 4 µg/mL
- Meropenem MIC with BLIs [4, 28]: 16 µg/mL
- BLI MIC ([4]; KPM3825, mpK36_2040 ΔompK35, NDM-1): >64 µg/mL
